Results reported in ChEMBL document CHEMBL2069296, “A novel series of G-quadruplex ligands with selectivity for HIF-expressing osteosarcoma and renal cancer cell lines” (Bioorg Med Chem Lett, 2012).
Activity calls are given as the source filed them. No cut-off for these calls is given here.

Legend:
HOS = test: Antiproliferative activity against human HOS cells after 96 hrs by SRB assay; format: functional, cell-based
MG-63 = test: Antiproliferative activity against human MG63 cells after 96 hrs by SRB assay; format: functional, cell-based; conditions: MG-63, 96 h
HOS-TE85 = test: Antiproliferative activity against human MNNG-HOS cells after 96 hrs by SRB assay; format: functional, cell-based; conditions: HOS-TE85, 96 h
U2OS = test: Antiproliferative activity against human U2OS cells after 96 hrs by SRB assay; format: functional, cell-based
SAOS-2 = test: Antiproliferative activity against human Saos2 cells after 96 hrs by SRB assay; format: functional, cell-based; conditions: SAOS-2, 96 h
OST = test: Antiproliferative activity against human OST cells after 96 hrs by SRB assay; format: functional, cell-based
[1] = Antiproliferative activity against human TC71 cells after 96 hrs by SRB assay; format: functional, cell-based; conditions: TC-71, 96 h
[2] = Antiproliferative activity against human TC32 cells after 96 hrs by SRB assay; format: functional, cell-based; conditions: TC-32, 96 h
MCF7 = test: Antiproliferative activity against human MCF7 cells after 96 hrs by SRB assay; format: functional, cell-based; conditions: MCF7, 96 h
A549 = test: Antiproliferative activity against human A549 cells after 96 hrs by SRB assay; format: functional, cell-based; conditions: A549, 96 h
MIA PaCa-2 = test: Antiproliferative activity against human MIAPaCa2 cells after 96 hrs by SRB assay; format: functional, cell-based; conditions: MIA PaCa-2, 96 h
PANC-1 = test: Antiproliferative activity against human PANC1 cells after 96 hrs by SRB assay; format: functional, cell-based; conditions: PANC-1, 96 h
HPAC = test: Antiproliferative activity against human HPAC cells after 96 hrs by SRB assay; format: functional, cell-based
PC-3 = test: Antiproliferative activity against human PC3 cells after 96 hrs by SRB assay; format: functional, cell-based; conditions: PC-3, 96 h
[3] = Antiproliferative activity against human 786-O cells after 96 hrs by SRB assay; format: functional, cell-based; conditions: 786-0, 96 h
A498 = test: Antiproliferative activity against human A498 cells after 96 hrs by SRB assay; format: functional, cell-based; conditions: A498, 96 h
[4] = Antiproliferative activity against human RCC4 cells after 96 hrs by SRB assay; format: functional, cell-based; conditions: RCC4, 96 h
[5] = Antiproliferative activity against human RCC4/VHL cells after 96 hrs by SRB assay; format: functional, cell-based
[6] = Antiproliferative activity against human TC135 cells after 96 hrs by SRB assay; format: functional, cell-based; conditions: TC135, 96 h
WI-38 = test: Cytotoxicity against human WI38 after 96 hrs by SRB assay; format: cell-based; conditions: WI-38, 96 h
Nucleic Acid [7] = test: Binding affinity to HIF1alpha DNA by surface plasmon resonance assay; format: nucleic-acid assay
Nucleic Acid [8] = test: Binding affinity to HIF2alpha DNA by surface plasmon resonance assay; format: nucleic-acid assay
Nucleic Acid [9] = test: Binding affinity to 5'-GGGGCGGGCACGGGGCGGG-3' DNA by surface plasmon resonance; format: nucleic-acid assay

`O=C(CCN1CCCC1)Nc1cccc(-n2cc(-c3ccc4ccc(-c5cn(-c6cccc(NC(=O)CCN7CCCC7)c6)nn5)cc4c3)nn2)c1` gave an IC50 (HOS) of 7.1 µM, an IC50 (MG-63) greater than 100 µM and an IC50 (HOS-TE85) of 2.9 µM. The IC50 (U2OS) was 13 µM, the IC50 (SAOS-2) was 2.7 µM and the IC50 (OST) was 2.2 µM. For the same molecule, the IC50 [1] was 8.9 µM, the IC50 [2] was 1.9 µM and the IC50 (MCF7) was 30 µM. The IC50 (A549) was 76 µM, the IC50 (MIA PaCa-2) was 11 µM and the IC50 (PANC-1) was 7.1 µM. It also gave an IC50 (HPAC) of 8 µM, an IC50 (PC-3) of 9.4 µM and an IC50 [3] of 5.85 µM. The IC50 (A498) was 7.5 µM, the IC50 [4] was 4.2 µM and the IC50 [5] was 6.8 µM. The IC50 [6] was 2.5 µM and the IC50 (WI-38) was 18 µM.
In the case of `CCN(CC)CCC(=O)Nc1cccc(-n2cc(-c3ccc4ccc(-c5cn(-c6cccc(NC(=O)CCN(CC)CC)c6)nn5)cc4c3)nn2)c1`, the IC50 (HOS-TE85) is reported as 3.1 µM, the IC50 (U2OS) is reported as 7.8 µM and the IC50 (SAOS-2) is reported as 2.8 µM. The IC50 (OST) was 2.1 µM, the IC50 [1] was 28 µM and the IC50 [2] was 2.5 µM. The IC50 (MCF7) was 21 µM, the IC50 (A549) was 29 µM and the IC50 (MIA PaCa-2) was 17.5 µM. It also gave an IC50 (PANC-1) of 7.4 µM, an IC50 (PC-3) of 7.8 µM and an IC50 [3] of 9.8 µM. The IC50 (A498) was 9.9 µM, the IC50 [4] was 1.6 µM and the IC50 [5] was 2.7 µM. For the same molecule, the IC50 [6] was 2.6 µM and the IC50 (WI-38) was 10.6 µM.
For `CCN(CC)CCC(=O)Nc1ccc(-n2cc(-c3ccc4ccc(-c5cn(-c6ccc(NC(=O)CCN(CC)CC)cc6)nn5)cc4c3)nn2)cc1`, the IC50 (HOS) was 5.2 µM, the IC50 (MG-63) was 7 µM and the IC50 (HOS-TE85) was 2.8 µM. It also gave an IC50 (U2OS) of 5.1 µM, an IC50 (SAOS-2) of 2.5 µM and an IC50 (OST) of 1.9 µM. The IC50 [1] was 7.5 µM, the IC50 [2] was 2.1 µM and the IC50 (MCF7) was 9.2 µM. The IC50 (A549) was 7.6 µM, the IC50 (MIA PaCa-2) was 12.5 µM and the IC50 (PANC-1) was 8 µM. It also gave an IC50 (HPAC) of 6.9 µM, an IC50 (PC-3) of 8.2 µM and an IC50 [3] of 5.6 µM. For the same molecule, the IC50 (A498) was 6.9 µM, the IC50 [4] was 1.9 µM and the IC50 [5] was 2.4 µM. The IC50 [6] was 2.2 µM and the IC50 (WI-38) was 7.4 µM.
With `CCN(CC)CC(=O)Nc1ccc(-n2cc(-c3ccc4ccc(-c5cn(-c6ccc(NC(=O)CN(CC)CC)cc6)nn5)cc4c3)nn2)cc1` the K (Nucleic Acid [7]) was 1.25 ×10⁷ /M, the K (Nucleic Acid [8]) was 0.15 ×10⁷ /M and the K (Nucleic Acid [9]) was “inactive”. It also gave an IC50 (HOS) of 75 µM, an IC50 (MG-63) of 81 µM and an IC50 (HOS-TE85) of 25 µM. It also gave an IC50 (U2OS) of 22 µM, an IC50 (SAOS-2) of 95 µM and an IC50 (OST) of 37 µM. It also gave an IC50 [1] greater than 100 µM, an IC50 [2] of 29 µM and an IC50 (MCF7) of 100 µM. The IC50 (A549) was greater than 100 µM, the IC50 (MIA PaCa-2) was greater than 100 µM and the IC50 (PANC-1) was greater than 100 µM. The IC50 (HPAC) was 52 µM, the IC50 (PC-3) was greater than 100 µM and the IC50 [3] was 23 µM. For the same molecule, the IC50 (A498) was 8 µM, the IC50 [4] was 22 µM and the IC50 [5] was 26 µM. It also gave an IC50 [6] of 23 µM and an IC50 (WI-38) of 9 µM.
